Data reported in publication PMC6892409, “Phenotypic proteomic profiling identifies a landscape of targets for circadian clock–modulating compounds” (Life Science Alliance, 2019).
Where two headings read alike, the source gives them in different places.

Key:
Per2-dLuc U2OS cells = assay: Circadian luminescence period assay, Per2-dLuc U2OS cells; type: cell-based, human; conditions: for Effect of kinase inhibitor on circadian period length: threefold serial dilution starting at 100 μM; for Circadian period length: 8 μM, mean ± SEM, control 24.2 ± […]
Protocol: Per2-dLuc U2OS osteosarcoma and Bmal1-dLuc U2OS osteosarcoma reporter cell lines were gifts from Dr Andrew Liu, University of Memphis, USA ([Liu et al, 2008]). […] The cells were cultured at 37°C, 5% CO2 in a standard humidified incubator.

U2OS cells = assay: TMT quantitative proteomics of compound-treated U2OS cells; type: cell-based, human; conditions: 10 μM, 48 h, vs DMSO
Synechococcus elongatus = assay: Luminescence rhythm period assay in cyanobacteria; conditions: 3, 8, 16 and 32 μM
Protocol: The D730nm was maintained between 0.27 and 0.45 by dilution with fresh medium.
Circadian period–altering compounds (dissolved in DMSO, final 0.5% DMSO) were then added in the air medium to reach the different desired concentrations. […] Images were generated from integrated photon counts over 25 min every 30 min using Metamorph software (Molecular Devices). […] Exported images were composed into image stacks and were quantified in a time series using a custom script in NIH ImageJ software, applying the “Multi Measure” plugin.

CAMK1d = target: T1, CAMK1d (Homo sapiens, UniProt Q8IU85); assay: Radiometric HotSpot kinase assay; type: biochemical; conditions: read-out: Enzyme activity (%) CAMK1d
T1 construct: purchased Reaction Biology
Protocol: (§1) In brief, specific kinase/substrate pairs were mixed in a buffer containing 20 mM Hepes (pH 7.5), 10 mM MgCl2, 1 mM EGTA, 0.02% Brij35, 0.02 mg/ml BSA, 0.1 mM Na3VO4, 2 mM DTT, and 1% DMSO. […] After a 20-min incubation, ATP (cat. no. A7699; Sigma-Aldrich) and [γ-^33P] ATP (cat. no. NEG602H001MC; PerkinElmer) were added at a final total concentration of […].

TNIK = target: T2, TNIK (Homo sapiens, UniProt Q9UKE5); assay: Radiometric HotSpot kinase assay; type: biochemical; conditions: for remaining activity at 100 µM: read-out: Enzyme activity (%) TNIK
T2 construct: purchased Reaction Biology
Protocol: as §1

ERK1/MAPK3 = target: T3, ERK1/MAPK3 (Homo sapiens, UniProt P27361); assay: Radiometric HotSpot kinase assay; type: biochemical; conditions: read-out: Enzyme activity (%) ERK1/MAPK3
T3 construct: purchased Reaction Biology
Protocol: as §1

CK2a = target: T4, CK2a (Homo sapiens, UniProt P68400); assay: Radiometric HotSpot kinase assay; type: biochemical; conditions: read-out: Enzyme activity (%) CK2a
T4 construct: purchased Reaction Biology
Protocol: as §1

CK1d = target: T5, CK1d (Homo sapiens, UniProt P48730); assay: Radiometric HotSpot kinase assay; type: biochemical; conditions: n = 3, remaining activity vs DMSO, read-out: Enzyme activity (%) CK1d
T5 construct: purchased Reaction Biology
Protocol: as §1

MST4/STK26 = target: T6, MST4/STK26 (Homo sapiens, UniProt Q9P289); assay: Radiometric HotSpot kinase assay; type: biochemical; conditions: read-out: Enzyme activity (%) MST4/STK26
T6 construct: purchased Reaction Biology
Protocol: as §1

CAMK2d = target: T7, CAMK2d (Homo sapiens, UniProt Q13557); assay: Radiometric HotSpot kinase assay; type: biochemical; conditions: read-out: Enzyme activity (%) CAMK2d
T7 construct: purchased Reaction Biology
Protocol: as §1

CDK2 = target: T8, CDK2 (Homo sapiens, UniProt P24941); assay: Radiometric HotSpot kinase assay; type: biochemical; conditions: n = 3, remaining activity vs DMSO, read-out: Enzyme activity (%) CDK2
T8 construct: purchased Reaction Biology
Protocol: as §1

ERK2/MAPK1 = target: T9, ERK2/MAPK1 (Homo sapiens, UniProt P28482); assay: Radiometric HotSpot kinase assay; type: biochemical; conditions: read-out: Enzyme activity (%) ERK2/MAPK1
T9 construct: purchased Reaction Biology
Protocol: as §1

CDK7 = target: T10, CDK7 (Homo sapiens, UniProt P50613); assay: Radiometric HotSpot kinase assay; type: biochemical; conditions: read-out: Enzyme activity (%) CDK7
T10 construct: purchased Reaction Biology
Protocol: as §1

[1] = 100 μM, n = 3, remaining activity vs DMSO

T2 sequence (Q9UKE5 whole entry): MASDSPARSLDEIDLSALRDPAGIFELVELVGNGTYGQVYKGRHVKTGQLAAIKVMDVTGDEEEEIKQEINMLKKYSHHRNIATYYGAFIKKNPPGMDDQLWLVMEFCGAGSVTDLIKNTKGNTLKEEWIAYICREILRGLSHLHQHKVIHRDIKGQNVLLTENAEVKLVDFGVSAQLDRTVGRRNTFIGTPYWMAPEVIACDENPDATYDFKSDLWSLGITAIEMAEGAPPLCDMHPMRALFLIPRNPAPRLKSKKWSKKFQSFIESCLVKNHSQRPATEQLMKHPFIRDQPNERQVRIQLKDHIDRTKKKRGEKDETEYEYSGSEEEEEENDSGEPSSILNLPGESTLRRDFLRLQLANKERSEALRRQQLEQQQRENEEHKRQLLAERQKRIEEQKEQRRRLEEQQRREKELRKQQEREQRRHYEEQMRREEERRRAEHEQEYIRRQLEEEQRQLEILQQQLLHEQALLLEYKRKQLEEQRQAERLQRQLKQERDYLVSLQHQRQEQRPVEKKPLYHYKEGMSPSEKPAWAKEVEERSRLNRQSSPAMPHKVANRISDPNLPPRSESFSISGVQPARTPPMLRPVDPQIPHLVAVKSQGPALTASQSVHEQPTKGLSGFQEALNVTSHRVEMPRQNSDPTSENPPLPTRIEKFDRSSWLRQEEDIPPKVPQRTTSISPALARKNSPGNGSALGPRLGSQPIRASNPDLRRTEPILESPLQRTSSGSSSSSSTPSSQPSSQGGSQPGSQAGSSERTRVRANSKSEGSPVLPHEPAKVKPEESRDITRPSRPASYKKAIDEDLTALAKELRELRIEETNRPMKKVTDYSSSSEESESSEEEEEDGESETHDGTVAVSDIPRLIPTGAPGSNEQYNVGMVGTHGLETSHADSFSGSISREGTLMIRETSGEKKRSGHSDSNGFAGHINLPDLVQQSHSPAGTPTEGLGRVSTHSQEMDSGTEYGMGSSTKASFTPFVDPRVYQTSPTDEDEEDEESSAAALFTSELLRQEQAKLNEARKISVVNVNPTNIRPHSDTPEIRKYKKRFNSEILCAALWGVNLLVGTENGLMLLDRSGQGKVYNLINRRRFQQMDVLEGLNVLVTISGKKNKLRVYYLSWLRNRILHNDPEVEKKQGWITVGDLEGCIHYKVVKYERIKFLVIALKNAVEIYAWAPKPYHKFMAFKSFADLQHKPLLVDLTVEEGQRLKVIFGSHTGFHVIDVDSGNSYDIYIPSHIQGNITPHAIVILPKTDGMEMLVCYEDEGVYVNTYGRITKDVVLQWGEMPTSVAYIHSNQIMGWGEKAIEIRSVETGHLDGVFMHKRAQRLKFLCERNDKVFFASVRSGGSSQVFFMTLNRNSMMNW
T1 sequence (Q8IU85 whole entry): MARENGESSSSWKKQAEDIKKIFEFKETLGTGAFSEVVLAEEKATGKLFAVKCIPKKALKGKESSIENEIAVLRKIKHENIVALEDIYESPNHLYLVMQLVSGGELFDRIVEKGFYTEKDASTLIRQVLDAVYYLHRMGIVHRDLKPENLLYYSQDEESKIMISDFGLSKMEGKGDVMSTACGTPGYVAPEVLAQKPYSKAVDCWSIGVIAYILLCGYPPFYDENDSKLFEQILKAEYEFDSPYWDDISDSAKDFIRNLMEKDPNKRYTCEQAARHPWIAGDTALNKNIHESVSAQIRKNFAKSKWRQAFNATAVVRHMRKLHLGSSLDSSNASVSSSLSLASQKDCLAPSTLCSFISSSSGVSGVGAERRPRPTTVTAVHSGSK
T7 sequence (Q13557 whole entry): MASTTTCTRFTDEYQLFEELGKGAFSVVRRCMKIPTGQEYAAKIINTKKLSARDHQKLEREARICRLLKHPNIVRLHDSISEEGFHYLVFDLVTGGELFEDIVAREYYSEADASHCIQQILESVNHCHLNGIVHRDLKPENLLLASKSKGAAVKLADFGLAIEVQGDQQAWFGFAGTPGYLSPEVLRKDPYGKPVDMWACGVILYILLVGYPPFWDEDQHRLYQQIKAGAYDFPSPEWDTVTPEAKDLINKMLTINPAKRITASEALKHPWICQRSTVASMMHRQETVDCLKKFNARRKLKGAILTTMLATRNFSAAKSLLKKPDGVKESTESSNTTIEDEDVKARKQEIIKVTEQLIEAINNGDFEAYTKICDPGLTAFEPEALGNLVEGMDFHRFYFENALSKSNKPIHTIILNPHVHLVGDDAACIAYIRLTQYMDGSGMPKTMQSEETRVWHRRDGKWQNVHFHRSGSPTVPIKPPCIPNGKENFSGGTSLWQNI
T10 sequence (P50613 whole entry): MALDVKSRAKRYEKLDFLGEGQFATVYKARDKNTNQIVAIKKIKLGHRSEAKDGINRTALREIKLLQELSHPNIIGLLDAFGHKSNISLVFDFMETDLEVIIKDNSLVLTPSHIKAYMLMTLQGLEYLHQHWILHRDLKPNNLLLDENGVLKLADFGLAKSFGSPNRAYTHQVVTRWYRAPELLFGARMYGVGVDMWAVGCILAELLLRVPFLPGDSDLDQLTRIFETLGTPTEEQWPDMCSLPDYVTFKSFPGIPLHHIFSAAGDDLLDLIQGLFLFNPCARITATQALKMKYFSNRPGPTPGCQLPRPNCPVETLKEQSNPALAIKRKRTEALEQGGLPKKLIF
T10 sequence (P51946 whole entry partner): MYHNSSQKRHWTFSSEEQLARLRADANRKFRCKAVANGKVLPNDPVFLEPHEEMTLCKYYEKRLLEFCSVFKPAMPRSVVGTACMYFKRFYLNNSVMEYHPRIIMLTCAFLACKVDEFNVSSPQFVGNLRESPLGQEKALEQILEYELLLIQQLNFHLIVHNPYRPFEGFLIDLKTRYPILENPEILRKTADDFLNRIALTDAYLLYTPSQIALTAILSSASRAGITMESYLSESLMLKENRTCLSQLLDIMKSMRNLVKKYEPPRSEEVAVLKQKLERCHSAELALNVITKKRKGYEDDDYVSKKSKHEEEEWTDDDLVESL
T10 sequence (P51948 whole entry partner): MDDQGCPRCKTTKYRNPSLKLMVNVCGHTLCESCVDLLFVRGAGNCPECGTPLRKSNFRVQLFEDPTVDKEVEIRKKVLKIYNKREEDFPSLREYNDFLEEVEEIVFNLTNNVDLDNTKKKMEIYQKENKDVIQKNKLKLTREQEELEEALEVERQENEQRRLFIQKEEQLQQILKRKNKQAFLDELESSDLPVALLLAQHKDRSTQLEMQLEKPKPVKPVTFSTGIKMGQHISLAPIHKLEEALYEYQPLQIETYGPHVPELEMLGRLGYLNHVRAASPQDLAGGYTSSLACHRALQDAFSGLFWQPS
T3 sequence (P27361 whole entry): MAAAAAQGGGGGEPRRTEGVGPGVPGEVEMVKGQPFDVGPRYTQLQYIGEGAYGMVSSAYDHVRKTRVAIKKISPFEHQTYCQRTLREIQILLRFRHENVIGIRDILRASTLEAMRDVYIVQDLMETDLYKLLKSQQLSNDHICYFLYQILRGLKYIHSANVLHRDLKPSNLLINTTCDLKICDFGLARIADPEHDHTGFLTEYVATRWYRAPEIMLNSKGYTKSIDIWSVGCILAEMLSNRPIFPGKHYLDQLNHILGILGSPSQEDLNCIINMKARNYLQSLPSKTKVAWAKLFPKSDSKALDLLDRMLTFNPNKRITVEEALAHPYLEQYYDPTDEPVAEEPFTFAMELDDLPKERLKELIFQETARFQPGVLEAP
T6 sequence (Q9P289 whole entry): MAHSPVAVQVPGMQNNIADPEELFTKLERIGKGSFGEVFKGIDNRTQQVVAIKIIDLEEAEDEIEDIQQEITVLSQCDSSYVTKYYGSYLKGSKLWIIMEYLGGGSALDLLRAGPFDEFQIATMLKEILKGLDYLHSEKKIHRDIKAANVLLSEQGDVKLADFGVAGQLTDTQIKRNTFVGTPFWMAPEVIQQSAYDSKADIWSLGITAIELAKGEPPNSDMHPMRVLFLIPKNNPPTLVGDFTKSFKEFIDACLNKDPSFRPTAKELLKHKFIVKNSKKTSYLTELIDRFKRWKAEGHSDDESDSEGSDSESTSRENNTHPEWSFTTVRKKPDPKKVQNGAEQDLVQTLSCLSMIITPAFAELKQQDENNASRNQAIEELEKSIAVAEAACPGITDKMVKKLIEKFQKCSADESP
T4 sequence (P68400 whole entry): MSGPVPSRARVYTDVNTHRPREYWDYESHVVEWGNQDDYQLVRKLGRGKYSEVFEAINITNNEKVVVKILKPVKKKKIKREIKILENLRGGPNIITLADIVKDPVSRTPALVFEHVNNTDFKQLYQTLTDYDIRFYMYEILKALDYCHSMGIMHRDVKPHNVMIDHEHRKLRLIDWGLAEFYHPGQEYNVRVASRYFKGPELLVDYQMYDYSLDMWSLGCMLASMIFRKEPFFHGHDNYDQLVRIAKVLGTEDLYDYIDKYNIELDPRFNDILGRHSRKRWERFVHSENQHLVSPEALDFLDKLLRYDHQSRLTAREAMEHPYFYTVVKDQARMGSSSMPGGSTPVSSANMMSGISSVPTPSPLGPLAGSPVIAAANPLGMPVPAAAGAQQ
T9 sequence (P28482 whole entry): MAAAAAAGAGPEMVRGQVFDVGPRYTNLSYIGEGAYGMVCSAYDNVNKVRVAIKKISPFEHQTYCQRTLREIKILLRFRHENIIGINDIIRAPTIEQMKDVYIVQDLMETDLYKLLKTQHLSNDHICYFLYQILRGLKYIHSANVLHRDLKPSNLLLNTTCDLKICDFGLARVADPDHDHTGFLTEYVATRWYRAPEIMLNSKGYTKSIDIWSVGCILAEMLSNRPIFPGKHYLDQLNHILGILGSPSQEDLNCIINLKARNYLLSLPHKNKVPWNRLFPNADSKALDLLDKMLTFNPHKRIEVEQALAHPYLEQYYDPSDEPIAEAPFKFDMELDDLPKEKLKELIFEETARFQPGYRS

## NC(=O)c1ccc(-c2nc(-c3ccc4c(c3)OCCO4)c(-c3ccccn3)[nH]2)cc1 [D4476]
Per2-dLuc U2OS cells
  Effect of kinase inhibitor on circadian period length: substantial dose-dependent increase in the period length

## Cc1cc2sc(NC(=O)Cc3ccccc3)nc2cc1Cl [LH846]
Per2-dLuc U2OS cells
  Effect of kinase inhibitor on circadian period length: substantial dose-dependent increase in the period length

## CC(C)n1cnc2c(NCc3cccc(C(F)(F)F)c3)ncnc21 [Longdaysin, longdaysin]
U2OS cells
  Average Fold-change Acot9 Q9Y305: 0.86
  Average Fold-change Atp5f1e P56381: 0.88
  Average Fold-change Bak1 Q16611: 1.18
  Average Fold-change Cdk7 P50613: 0.85
  Average Fold-change Col1a1 P02452: 0.83
  Average Fold-change Csnk2a2 P19784: 0.81
  Average Fold-change Csnk1d P48730: 0.75
  Average Fold-change Ctsb P07858: 1.19
  Average Fold-change Cyb5b O43169: 1.15
  Average Fold-change Emsy Q7Z589: 0.86
  Average Fold-change Gusb P08236: 1.17
  Average Fold-change H1f0 P07305: 1.31
  Average Fold-change Hist1h4a P62805: 1.36
  Average Fold-change Hist2h3a Q71DI3: 1.28
  Average Fold-change Krt9 P35527: 0.78
  Average Fold-change Mapk1 P28482: 0.75
  Average Fold-change Mapk14 Q16539: 0.78
  Average Fold-change Nemf O60524: 0.80
  Average Fold-change Npc2 P61916: 1.20
  Average Fold-change Nucks1 Q9H1E3: 1.22
  Average Fold-change Ppig Q13427: 0.89
  Average Fold-change Rpl7a P62424: 0.85
  Average Fold-change Rpl14 P50914: 0.80
  Average Fold-change Rpl18 Q07020: 0.85
  Average Fold-change Rpl28 P46779: 0.86
  Average Fold-change Rpl37 P61927: 0.87
  Average Fold-change Rpl37a P61513: 0.88
  Average Fold-change Smarcd2 Q92925: 0.88
  Average Fold-change Spryd4 Q8WW59: 0.78
  Average Fold-change Tecr Q9NZ01: 0.46
  Average Fold-change Terf2 Q15554: 1.15
Per2-dLuc U2OS cells
  Circadian period length: 35.1 ± 1.29 h
Synechococcus elongatus
  Effect on period length in cyanobacteria: do not affect period length

## CC(C)[C@H](CO)Nc1nc(Nc2cccc(Cl)c2)c2ncn(C(C)C)c2n1 [Purvalanol A, purvalanol A]
U2OS cells
  Average Fold-change Acsf2 Q96CM8: 1.16
  Average Fold-change Alcam Q13740: 1.20
  Average Fold-change Arhgap29 Q52LW3: 1.19
  Average Fold-change Cav1 Q03135: 1.17
  Average Fold-change Cavin1 Q6NZI2: 1.22
  Average Fold-change Cavin2 O95810: 1.29
  Average Fold-change Cd47 Q08722: 1.17
  Average Fold-change Cdk6 Q00534: 0.86
  Average Fold-change Cdk7 P50613: 0.74
  Average Fold-change Cdkn1a P38936: 1.52
  Average Fold-change Cdkn1b P46527: 1.37
  Average Fold-change Cers5 Q8N5B7: 1.14
  Average Fold-change Cks1b P61024: 0.85
  Average Fold-change Cks2 P33552: 0.83
  Average Fold-change Col1a1 P02452: 0.80
  Average Fold-change Ctsb P07858: 1.29
  Average Fold-change Dpysl4 O14531: 1.15
  Average Fold-change Fas P25445: 1.18
  Average Fold-change Gls O94925: 0.80
  Average Fold-change Gys1 P13807: 1.22
  Average Fold-change H1f0 P07305: 1.20
  Average Fold-change Hist1h4a P62805: 1.50
  Average Fold-change Hist2h3a Q71DI3: 1.29
  Average Fold-change Hmga1 P17096: 1.16
  Average Fold-change Hmgcs1 Q01581: 0.77
  Average Fold-change Hmgn2 P05204: 1.15
  Average Fold-change Irf2bpl Q9H1B7: 1.15
  Average Fold-change Itga2 P17301: 1.20
  Average Fold-change Itga3 P26006: 1.17
  Average Fold-change Naga P17050: 1.19
  Average Fold-change Nbn O60934: 0.83
  Average Fold-change Npc2 P61916: 1.33
  Average Fold-change Pak1 Q13153: 1.19
  Average Fold-change Ppp1cc P36873: 0.85
  Average Fold-change Psap P07602: 1.20
  Average Fold-change Rpl14 P50914: 0.75
  Average Fold-change S100a2 P29034: 1.30
  Average Fold-change Selenoh Q8IZQ5: 1.14
  Average Fold-change Slc5a3 P53794: 1.16
  Average Fold-change Slc20a1 Q8WUM9: 1.20
  Average Fold-change Tada3 O75528: 1.28
  Average Fold-change Uhrf1 Q96T88: 0.82
Per2-dLuc U2OS cells
  Circadian period length: 25.2 ± 0.04 h
CAMK1d; [1]
  remaining activity at 100 µM: 49.2%
TNIK; [1]
  remaining activity at 100 µM: 2.3%
TNIK; 10-dose, threefold serial dilution starting at 100 μM
  IC50: < 500 nM
ERK1/MAPK3; [1]
  remaining activity at 100 µM: 83.6%
CK2a; [1]
  remaining activity at 100 µM: 76.9%
CK1d
  remaining activity at 100 µM: 21.7%
MST4/STK26; [1]
  remaining activity at 100 µM: 32.7%
CAMK2d; [1]
  remaining activity at 100 µM: 53.2%
CDK2
  remaining activity at 100 µM: 0.7%
ERK2/MAPK1; [1]
  remaining activity at 100 µM: 66.5%
CDK7
  remaining activity at 100 µM: 3.8%
Synechococcus elongatus
  Effect on period length in cyanobacteria: do not affect period length

## CC[C@H](CO)Nc1nc(NCc2ccccc2)c2ncn(C(C)C)c2n1 [Roscovitine, roscovitine]
Per2-dLuc U2OS cells
  Circadian period length: 28.9 ± 0.08 h
CAMK1d
  remaining activity at 100 µM: 56.7%
TNIK
  remaining activity at 100 µM: 7.8%
ERK1/MAPK3
  remaining activity at 100 µM: 59.1%
CK2a
  remaining activity at 100 µM: 89.4%
MST4/STK26
  remaining activity at 100 µM: 40.1%
CAMK2d
  remaining activity at 100 µM: 38.9%
ERK2/MAPK1
  remaining activity at 100 µM: 50.6%
CDK7
  remaining activity at 100 µM: 4%
Synechococcus elongatus
  Effect on period length in cyanobacteria: do not affect period length

## COc1ccc2c(c1)/C(=C/c1cnc[nH]1)C(=O)N2 [SU9516]
Per2-dLuc U2OS cells
  Effect of kinase inhibitor on circadian period length: substantial dose-dependent increase in the period length
